The text below walks through data of patent publication US11236068B2, “Fused ring compounds” (Genentech, Inc., priority 2018, dated 2022).

The term half-life denotes how long it takes for the measured level to halve. Read a high half-life as slow loss. Broadly, the EC50 is the concentration needed to bring the measured effect to its halfway point. Read a high EC50 as lower potency in that assay. The IC50 is the concentration at which inhibition is half-maximal. A low value points to greater potency.

Series [1] in a line: Whole blood stability assay. In kind it is in vitro ADME. The conditions noted are these: fresh whole blood, drug final concentration 1 μM, 37° C., 180 minutes. The method, then: Whole Blood Stability Assay
A whole blood stability assay was performed using fresh blood with a drug final concentration of 1 μM. The drug-blood mixtures were incubated at 37° C. for 180 minutes.

For series [2], the target named is T1, K-Ras G12C (Homo sapiens (Human), UniProt P01116, G12C). Put plainly: Western blot assay for in cell alkylation of K-Ras G12C (HCC1171 cells). The conditions noted are these: 18 hours at 37° C., 7 point dose response. In kind it is cell-based. (In general: A western blot detects proteins with antibodies after separation by electrophoresis.)
Target sequence in this assay (P01116 other isoform, or with tags, fused parts or gaps G12C): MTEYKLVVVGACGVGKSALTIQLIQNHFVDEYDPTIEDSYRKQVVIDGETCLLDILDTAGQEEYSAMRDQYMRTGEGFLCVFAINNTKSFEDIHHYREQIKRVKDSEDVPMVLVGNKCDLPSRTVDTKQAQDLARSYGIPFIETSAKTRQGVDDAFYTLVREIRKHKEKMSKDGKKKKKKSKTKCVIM
The target of series [3] is T1, K-Ras G12C. Put plainly: K-Ras G12C, SOS1, Raf RBD HTRF assay for inhibition of GTP exchange. In kind it is biochemical. Particulars: 18 hours incubation with K-Ras G12C at room temperature, SOS1-mediated GTP exchange. The method, then: K-Ras G12C, SOS1, Raf RBD Homogeneous Time Resolved Fluorescence (HTRF) Assay for Inhibition of GTP Exchange
After 18 hours at room temperature, the SOS1 GTP exchange factor (1.67 nM during exchange, 1.25 nM final) was added to initiate nucleotide exchange to GTP (200 μM during exchange, 150 µM final). The level of GTP exchange was assessed by addition of a Ras binding domain derived from C-Raf and the HTRF detection antibodies Tb-anti-FLAG and D2-anti-his (Cis-Bio) at 50 nM, 1 nM and 12.5 nM, respectively. After 2 hours, the ratio of 665 nm to 615 nm emission with 320 nm excitation was measured on an Envision plate reader (Perkin Elmer).
The final reaction volume was 20l in a ProxiPlate-384F Plus (Perkin Elmer), in buffer containing 20 mM HEPES, 150 mM NaCl, 1 mM MgCl2, 0.1% BSA, 0.03% Tween-20 and 1 mM DTT. […] HTRF data are presented below in Table 3.
Target sequence in this assay (P01116 other isoform, or with tags, fused parts or gaps G12C): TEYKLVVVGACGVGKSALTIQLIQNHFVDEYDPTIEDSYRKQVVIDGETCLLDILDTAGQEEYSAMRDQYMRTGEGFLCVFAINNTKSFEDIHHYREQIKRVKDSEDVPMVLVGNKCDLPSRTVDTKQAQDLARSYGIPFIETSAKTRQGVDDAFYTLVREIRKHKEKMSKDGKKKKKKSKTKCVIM
Background: In TR-FRET formats the signal depends on donor and acceptor labels being close together.

With `C=CC(=O)N1CCN(c2ncnc3c(F)c(-c4nc(N)cc(C)c4C(F)(F)F)c(Cl)cc23)[C@@H](C)C1` [Example 19, 1-((3S)-4-(7-(6-amino-4-methyl-3-(trifluoromethyl)pyridin-2-yl)-6-chloro-8-fluoroquinazolin-4-yl)-3-methylpiperazin-1-yl)prop-2-en-1-one], the half-life at 1 μM in series [1] stood at 2.67 h. In series [2], `C=CC(=O)N1CCN(c2ncnc3cc(-c4nc(N)ccc4C(F)(F)F)c(S(C)(=O)=O)cc23)CC1` [Example 28, 1-[4-[7-[6-amino-3-(trifluoromethyl)-2-pyridyl]-6-methylsulfonyl-quinazolin-4-yl]piperazin-1-yl]prop-2-en-1-one] yielded an EC50 of 7.8 µM. For the same compound, the IC50 in series [3] was determined as 0.54 µM.

Turning to `C=CC(=O)N1CCN(c2ncnc3cc(-c4nc(N)cc5cccc(F)c45)c(Cl)cc23)CC1` [Example 48, 1-[4-[7-(3-amino-8-fluoroisoquinoline-1-yl)-6-chloroquinazolin-4-yl]piperazin-1-yl]prop-2-en-1-one], in series [2], a half-maximal response (EC50) required 0.14 µM. Moreover, the IC50 in series [3] worked out at 0.032 µM.

`C=CC(=O)N1CCN(c2nc(OC[C@@H]3CCCN3C)nc3cc(-c4nc(N)cc(C)c4C(F)(F)F)c(Cl)cc23)[C@@H](C)C1` [Example 61, 1-((S)-4-(7-(6-amino-4-methyl-3-(trifluoromethyl)pyridin-2-yl)-6-chloro-2-(((S)-1-methylpyrrolidin-2-yl)methoxy)quinazolin-4-yl)-3-methylpiperazin-1-yl)prop-2-en-1-one]: in series [2], the midpoint of the response, the EC50, lay at 0.002 µM. Besides, the half-life at 1 μM in series [1] was 2.67 h.

`Cc1cc(N)nc(-c2cc3nc(OC[C@@H]4CCCN4C)nc(N4CCN(C(=O)/C=C/C(F)F)C[C@@H]4C)c3cc2Cl)c1C(F)(F)F` [Example 65, (E)-1-((S)-4-(7-(6-amino-4-methyl-3-(trifluoromethyl)pyridin-2-yl)-6-chloro-2-(((S)-1-methylpyrrolidin-2-yl)methoxy)quinazolin-4-yl)-3-methylpiperazin-1-yl)-4,4-difluorobut-2-en-1-one]: in series [2], the midpoint of the response, the EC50, lay at 0.0076 µM. Moreover, the half-life at 1 μM in series [1] amounted to 0.617 h. In the case of `C=CC(=O)N1CCN(c2nc(OC[C@@H]3C[C@@H](F)CN3C)nc3c(F)c(-c4nc(N)cc(C)c4C(F)(F)F)c(Cl)cc23)[C@@H](C)C1` [Example 69, 1-[(3S)-4-[7-[6-amino-4-methyl-3-(trifluoromethyl)-2-pyridyl]-6-chloro-8-fluoro-2-[[(2S,4R)-4-fluoro-1-methyl-pyrrolidin-2-yl]methoxy]quinazolin-4-yl]-3-methyl-piperazin-1-yl]prop-2-en-1-one], a half-maximal response in series [2] (EC50) required 0.001 µM. Moreover, in series [1], the half-life at 1 μM was above 9 h. For `C=CC(=O)N1CCN(c2nc(OC[C@@H]3CCCN3C)nc3cc(-c4nc(N)ccc4C(F)(F)F)c(Cl)cc23)CC1` [Example 70, (S)-1-(4-(7-(6-amino-3-(trifluoromethyl)pyridin-2-yl)-6-chloro-2-((1-methylpyrrolidin-2-yl)methoxy)quinazolin-4-yl)piperazin-1-yl)prop-2-en-1-one], in that order: 0.019 µM and 1.02 h. In series [2], `C=CC(=O)N1CCN(c2nc(OC[C@@H]3C[C@@H](OCC)CN3C)nc3cc(-c4nc(N)ccc4C(F)(F)F)c(Cl)cc23)CC1` [Example 71, 1-(4-(7-(6-amino-3-(trifluoromethyl)pyridin-2-yl)-6-chloro-2-(((2S,4R)-4-ethoxy-1-methylpyrrolidin-2-yl)methoxy)quinazolin-4-yl)piperazin-1-yl)prop-2-en-1-one] registered an EC50 of 0.018 µM. Also, in series [1], the half-life at 1 μM turned out to be 1.52 h.

`C=CC(=O)N1CCN(c2nc(OC[C@@H]3C[C@@H](F)[C@H](C)N3C)nc3cc(-c4nc(N)ccc4C(F)(F)F)c(Cl)cc23)CC1` [Example 90, 1-[4-[7-[6-amino-3-(trifluoromethyl)-2-pyridyl]-6-chloro-2-[[(2S,4R,5S)-4-fluoro-1,5-dimethyl-pyrrolidin-2-yl]methoxy]quinazolin-4-yl]piperazin-1-yl]prop-2-en-1-one] came in with an EC50 in series [2] of 0.055 µM.

With `C=CC(=O)N1CCN(c2nc(OC[C@@H]3CCCN3CCOC)nc3cc(-c4nc(N)ccc4C(F)(F)F)c(Cl)cc23)CC1` [Example 91, 1-[4-[7-[6-amino-3-(trifluoromethyl)-2-pyridyl]-6-chloro-2-[[(2S)-1-(2-methoxyethyl)pyrrolidin-2-yl]methoxy]quinazolin-4-yl]piperazin-1-yl]prop-2-en-1-one], the EC50 in series [2] turned out to be 0.04 µM.

Compound `C=CC(=O)N1CCN(c2nc(OC[C@@H]3C[C@@H](OC(F)F)CN3C)nc3cc(-c4nc(N)ccc4C(F)(F)F)c(Cl)cc23)CC1` [Example 92, 1-[4-[7-[6-amino-3-(trifluoromethyl)-2-pyridyl]-6-chloro-2-[[(2S,4R)-4-(difluoromethoxy)-1-methyl-pyrrolidin-2-yl]methoxy]quinazolin-4-yl]piperazin-1-yl]prop-2-en-1-one] had an EC50 in series [2] of 0.018 µM. In series [1], the half-life at 1 μM is 3 h. For the compound `C=CC(=O)N1CCN(c2nc(OC[C@@H]3CCCN3)nc3c(F)c(-c4nc(N)cc(C)c4C(F)(F)F)c(Cl)cc23)[C@@H](C)C1` [Example 93, 1-((3S)-4-(7-(6-amino-4-methyl-3-(trifluoromethyl)pyridin-2-yl)-6-chloro-8-fluoro-2-(((S)-pyrrolidin-2-yl)methoxy)quinazolin-4-yl)-3-methylpiperazin-1-yl)prop-2-en-1-one], a half-maximal response in series [2] (EC50) required 0.13 µM. Same read-out and setting: the same measure for `C=CC(=O)N1CCN(c2nc(OCC3(C)C[C@@H](F)CN3C)nc3cc(-c4nc(N)ccc4C(F)(F)F)c(Cl)cc23)CC1` (stereo partly drawn) [Example 96, 1-[4-[7-[6-amino-3-(trifluoromethyl)-2-pyridyl]-6-chloro-2-[[(4R)-4-fluoro-1,2-dimethyl-pyrrolidin-2-yl]methoxy]quinazolin-4-yl]piperazin-1-yl]prop-2-en-1-one]: 0.022 µM.
